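A five-concentration, 48-hour dose response in 96-well plates underlies each endpoint, interpolated linearly between surrounding concentrations. Abbreviation: GI50, concentration required for 50% inhibition of growth.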 The source made the active and inactive calls. Rule as the data show it: active = GI50 up to about 1.1 µM and inactive = higher.
Legend:
Test in all cases: growth of human tumour cells (NCI), 48 h
TK-10 = tested on: TK-10
HOP-18 = tested on: HOP-18
HCT-15 = tested on: HCT-15
IGROV-1 = tested on: IGROV-1
KM12 = tested on: KM12
NCI-H522 = tested on: NCI-H522
Malme-3M = tested on: Malme-3M
UACC-62 = tested on: UACC-62
HCC 2998 = tested on: HCC 2998
HT-29 = tested on: HT-29
NCI-H23 = tested on: NCI-H23
HCT-116 = tested on: HCT-116
CCRF-CEM = tested on: CCRF-CEM
M19-MEL = tested on: M19-MEL
SF-539 = tested on: SF-539
ACHN = tested on: ACHN
SNB-19 = tested on: SNB-19
SNB-78 = tested on: SNB-78
DMS-273 = tested on: DMS-273
OVCAR-3 = tested on: OVCAR-3
M14 = tested on: M14
SR = tested on: SR
MOLT-4 = tested on: MOLT-4
NCI-H226 = tested on: NCI-H226
CAKI-1 = tested on: CAKI-1
LXFL 529 = tested on: LXFL 529
HOP-62 = tested on: HOP-62
XF498 = tested on: XF498
786-0 = tested on: 786-0
HOP-92 = tested on: HOP-92
K562 = tested on: K562
SF-268 = tested on: SF-268
SK-MEL-5 = tested on: SK-MEL-5
A498 = tested on: A498
UACC-257 = tested on: UACC-257
A549 = tested on: A549
SF-295 = tested on: SF-295
OVCAR-5 = tested on: OVCAR-5
U-251 = tested on: U-251
EKVX = tested on: EKVX
SN12C = tested on: SN12C
SW-620 = tested on: SW-620
OVCAR-8 = tested on: OVCAR-8
UO-31 = tested on: UO-31
NCI-H460 = tested on: NCI-H460
RPMI-8226 = tested on: RPMI-8226
SK-OV-3 = tested on: SK-OV-3
COLO 205 = tested on: COLO 205
OVCAR-4 = tested on: OVCAR-4
HL-60 = tested on: HL-60
SK-MEL-2 = tested on: SK-MEL-2
SK-MEL-28 = tested on: SK-MEL-28
RXF 631 = tested on: RXF 631
KM-20L2 = tested on: KM-20L2
DLD-1 = tested on: DLD-1
SNB-75 = tested on: SNB-75
DMS-114 = tested on: DMS-114

## Cc1ccc(NC(=O)/C(=N\NC(N)=S)C(C#N)c2ccccc2C)cc1C (configuration not stated)
TK-10
  GI50: > 100 µM (inactive)
HOP-18
  GI50: > 100 µM (inactive)
HCT-15
  GI50: > 100 µM
IGROV-1
  GI50: > 100 µM (inactive)
KM12
  GI50: > 100 µM (inactive)
NCI-H522
  GI50: > 100 µM (inactive)
Malme-3M
  GI50: > 100 µM (inactive)
UACC-62
  GI50: > 100 µM (inactive)
HCC 2998
  GI50: > 100 µM (inactive)
HT-29
  GI50: > 100 µM (inactive)
NCI-H23
  GI50: > 100 µM (inactive)
HCT-116
  GI50: > 100 µM (inactive)
CCRF-CEM
  GI50: > 100 µM (inactive)
M19-MEL
  GI50: > 100 µM (inactive)
SF-539
  GI50: > 100 µM (inactive)
ACHN
  GI50: > 100 µM (inactive)
SNB-19
  GI50: > 100 µM (inactive)
SNB-78
  GI50: > 100 µM (inactive)
DMS-273
  GI50: > 100 µM (inactive)
OVCAR-3
  GI50: > 100 µM (inactive)
M14
  GI50: > 100 µM (inactive)
SR
  GI50: > 100 µM (inactive)
MOLT-4
  GI50: > 100 µM (inactive)
NCI-H226
  GI50: > 100 µM (inactive)
CAKI-1
  GI50: > 100 µM (inactive)
LXFL 529
  GI50: > 100 µM (inactive)
HOP-62
  GI50: > 100 µM (inactive)
XF498
  GI50: > 100 µM (inactive)
786-0
  GI50: > 100 µM (inactive)
HOP-92
  GI50: > 100 µM (inactive)
K562
  GI50: > 100 µM (inactive)
SF-268
  GI50: > 100 µM (inactive)
SK-MEL-5
  GI50: > 100 µM (inactive)
A498
  GI50: > 100 µM (inactive)
UACC-257
  GI50: > 100 µM (inactive)
A549
  GI50: > 100 µM (inactive)
SF-295
  GI50: > 100 µM (inactive)
OVCAR-5
  GI50: > 100 µM (inactive)
U-251
  GI50: > 100 µM (inactive)
EKVX
  GI50: > 100 µM (inactive)
SN12C
  GI50: > 100 µM (inactive)
SW-620
  GI50: > 100 µM (inactive)
OVCAR-8
  GI50: > 100 µM (inactive)
UO-31
  GI50: > 100 µM (inactive)
NCI-H460
  GI50: > 100 µM (inactive)
RPMI-8226
  GI50: > 100 µM (inactive)
SK-OV-3
  GI50: > 100 µM (inactive)
COLO 205
  GI50: > 100 µM (inactive)
OVCAR-4
  GI50: > 100 µM (inactive)
HL-60
  GI50: > 100 µM (inactive)
SK-MEL-2
  GI50: > 100 µM (inactive)
SK-MEL-28
  GI50: > 100 µM (inactive)
RXF 631
  GI50: > 100 µM (inactive)
KM-20L2
  GI50: > 100 µM (inactive)
DLD-1
  GI50: > 100 µM (inactive)
SNB-75
  GI50: 66.5 µM (inactive)
DMS-114
  GI50: > 100 µM (inactive)

Source: ChEMBL document CHEMBL1201862, “PubChem BioAssay data set” (2004)
